Measurements taken from patent EP4692083A1, “NOVEL AZABICYCLE DERIVATIVES AND PHARMACEUTICAL COMPOSITION FOR INHIBITING AUTOTAXIN, COMPRISING SAME” (Nextgen Bioscience Co., Ltd., priority 2023, dated 2024).

target: human Autotaxin protein (Homo sapiens, UniProt Q13822); experiment: Evaluation of the inhibitory activity against human Autotaxin protein (18:1 LysoPC substrate, choline assay kit, absorbance at 570 nm); type: biochemical; conditions: at 500nM compound, 2 hours at 37 °C, read-out: Inhibition rate (%, at 500nM)
Method: Solutions of each synthesized compound (80 uM, 100% dimethyl sulfoxide) were sequentially diluted 5-fold with dimethyl sulfoxide to prepare 6 concentrations. Each concentration of the compound was diluted 2-fold with 1x test buffer (50 mM Tris-Cl (pH 8.0), 5 mM KCl, 1 mM CaCl2, 1 mM MgCl2, 140 mM NaCl, deionized water, 1 mg/mL BSA), and 1 uL (1.25% dimethylsulfoxide) of the diluted mixture was dispensed into each well of a 96-well clear round-bottom plate. 9 uL of 1x test buffer was added, and 20 uL of 240 nM human autotaxin protein (buffer: 50 mM Tris-HCl, pH 8.0, with 150 mM sodium chloride and 20% glycerol) was added. 10 uL of sonicated 360 uM 18:1 LysoPC (diluted with 1x assay buffer) was added. The reaction was performed for 2 hours in a shaking incubator at 37 °C, and a secondary reaction mixture (choline assay kit, KA1662) (65 uL of 1x assay buffer: 1 uL of choline oxidase: 1 uL of dye probe) was prepared. 60 uL of the secondary reaction mixture was added to the plate where the reaction was performed, and incubated for 30 minutes in a shaker. The absorbance value was measured at a wavelength of 570 nm using a SpectraMax iD3 microplate reader. The percentage inhibition activity value (% inhibition) was calculated by the formula: (1 - absorbance value test group / absorbance value control group) X 100.

Compound	inhibition at 0.5 µM [%]
O=C(/C=C/c1cnc(NC2Cc3ccccc3C2)nc1)N1C[C@@H]2[C@H](C1)[C@H]2c1cnn[nH]1 [Example 46, (E)-1-((1R,5S,6r)-6-(1H-1,2,3-Triazol-5-yl)-3-azabicyclo[3.1.0]hexan-3-yl)-3-(2-((2,3-dihydro-1H-inden-2-yl)amino)pyrimidin-5-yl)prop-2-en-1-one]	99.4
c1ccc2c(c1)CC(Nc1ncc(C3CC(N4C[C@@H]5[C@H](C4)[C@H]5c4cnn[nH]4)=NO3)cn1)C2 (stereo partly drawn) [Example 50, 5-(3-((1R,5S,6r)-6-(1H-1,2,3-Triazol-5-yl)-3-azabicyclo[3.1.0]hexan-3-yl)-4,5-dihydroisoxazol-5-yl)-N-(2,3-dihydro-1H-inden-2-yl)pyrimidin-2-amine]	95.5
O=C(O)C[C@@H]1[C@H]2CN(c3nnc(-c4cnc(NCCc5ccc(Cl)cc5)nc4)o3)C[C@@H]12 [Example 51, 2-((1R,5S,6s)-3-(5-(2-((4-Chlorophenethyl)amino)pyrimidin-5-yl)-1,3,4-oxadiazol-2-yl)-3-azabicyclo[3.1.0]hexan-6-yl)acetic acid]	3.5

Results, then the compound that gave them:

inhibition at 0.5 µM [%]	Compound
13.9	Cn1nncc1[C@H]1[C@@H]2CN(c3nnc(-c4cnc(NCCc5ccc(Cl)cc5)nc4)o3)C[C@@H]21 [Example 47, N-(4-Chlorophenethyl)-5-(5-((1R,5S,6r)-6-(1-methyl-1H-1,2,3-triazol-5-yl)-3-azabicyclo[3.1.0]hexan-3-yl)-1,3,4-oxadiazol-2-yl)pyrimidin-2-amine]
34.7	Cc1nn[nH]c1[C@H]1[C@@H]2CN(c3nnc(-c4cnc(NCCc5ccc(Cl)cc5)nc4)o3)C[C@@H]21 [Example 48, N-(4-Chlorophenethyl)-5-(5-((1R,5S,6r)-6-(4-methyl-1H-1,2,3-triazol-5-yl)-3-azabicyclo[3.1.0]hexan-3-yl)-1,3,4-oxadiazol-2-yl)pyrimidin-2-amine]
76.4	Clc1ccc(CCNc2ncc(C3CC(N4C[C@@H]5[C@H](C4)[C@H]5c4cnn[nH]4)=NO3)cn2)cc1 (stereo partly drawn) [Example 49, 5-(3-((1R,5S,6r)-6-(1H-1,2,3-Triazol-5-yl)-3-azabicyclo[3.1.0]hexan-3-yl)-4,5-dihydroisoxazol-5-yl)-N-(4-chlorophenethyl)pyrimidin-2-amine]
